# Where two headings read alike, the source gives them in different places.
# Legend:
# LC3A/B = LC3A/B protein level by flow cytometry, MCF-7; format: cell-based, human; conditions: 24 h
# Protocol: (§1) For this purpose, Akt (PE), Bax (FITC), Bcl-2 (Alexa Fluor® 647), LC3A/B (Alexa Fluor® 488), and p53 (Alexa Fluor® 488) antibodies conjugated to different fluorochromes (all from Cell Signaling Technology, Beverly, MA, USA) were utilized. Each assay was performed according to the manufacturer's protocol available on their website. After incubation with the tested compounds, the cells were centrifuged, resuspended in 4% formaldehyde (100 μL/1 × 10^6 cells), and fixed for 15 min at room temperature. Afterward, to remove the formaldehyde, the cells were washed by centrifugation with excess PBS and the permeabilization step was triggered. For this purpose, ice-cold 90% methanol was added to the pre-chilled cell pellet, gently vortexed, and incubated for 1 h on ice. Later, the cells were washed by centrifugation with excess PBS again, resuspended in 100 μL of 1:100 diluted primary antibody (stain buffer was used for dilution), and incubated for 1 h at room temperature in the dark. After incubation, the cells were washed, resuspended in 300 μL PBS, and immediately tested with a flow cytometer (BD FACSCanto II, BD Biosciences Systems, San Jose, CA, USA; 10,000 events measured). The obtained results were analyzed using the FACSDiva 6.0 software (BD Biosciences Systems, San Jose, CA, USA). In the case of the p53 protein, the MRF values were obtained first during the flow cytometer readout utilizing FACSDiva software and later analyzed using FCS Express 7 (De Novo Software, Pasadena, CA, USA). The equipment calibration was performed using the BD Cytometer Setup and Tracking Beads (BD Biosciences, San Diego, CA, USA).
# [1] = test system: MCF-10A normal human breast epithelial cells; assay: DNA biosynthesis assay ([3H]-thymidine incorporation), MCF-10A; format: cell-based; conditions: read-out: IC50, DNA biosynthesis
# Protocol: The study of the antiproliferative properties (intensity of [^3H]-thymidine incorporation into cell DNA) of the tested derivatives against tested cell lines (MCF-7, MDA-MB-231, MCF-10A) was performed after 24 h incubation with varied concentrations of the tested compounds in the medium (0.5–5 µM) in 6-well plates (baseline seeding density: 5 × 10^5 cells/well). After 24 h the medium was removed, the cells were washed with PBS (Corning, Kennebunk, ME, USA), and a fresh medium was added. After that, the cells were treated with 0.5 µCi of tritium-labeled thymidine (specific activity 7 Ci/mmol) by incubating them with this compound for 4 h under the same conditions as the cell culture. In the first step, the medium was removed, and the cell monolayer was washed twice with 1 mL of 0.05 M Tris-HCl buffer pH 7.4 containing 0.11 M NaCl. To denature proteins, the cells were washed twice with 1 mL of 5% trichloroacetic acid (TCA) solution. Finally, cell lysis was performed by adding 1 mL of 0.1 M sodium hydroxide (NaOH) solution containing 1% sodium dodecyl sulfate (SDS) to each well. After five minutes, the obtained cell lysates were transferred to scintillation vials with 2 mL of scintillation fluid added to them beforehand. Radioactivity was measured using the Scintillation Counter 1900 TR, TRI-CARB (Packard, Perkin Elmer, Inc., San Jose, CA, USA). The intensity of DNA biosynthesis in the analyzed cells was expressed in terms of dpm/well. The result of the radioactivity measurement in the control cells (without the addition of tested compounds) was taken as 100%, while the values of cells incubated with the tested compounds were presented as a percentage of the control value.
# Bax = Bax protein level by flow cytometry, MDA-MB-231; format: cell-based, human; conditions: 24 h
# Protocol: as §1
# [2] = test system: MDA-MB-231 breast cancer cells; assay: Mitochondrial membrane potential (JC-1, flow cytometry), MDA-MB-231; format: cell-based, human; conditions: 24 h
# Protocol: The entire cell staining and cytometric analysis procedures were performed according to the instructions provided with the kit. In the first step, the cells (1 × 10^6 cells/sample) were washed and resuspended in 0.5 mL of buffer containing 10 µg/mL JC-1 dye. Incubation was carried out for 15 min at room temperature, protected from light. Afterward, the cells were washed twice with buffer, resuspended in 0.5 mL PBS, and immediately analyzed using a flow cytometer (BD FACSCanto II; 10,000 events measured) and the FACSDiva 6.0 software (BD Biosciences Systems, San Jose, CA, USA) to count the percentage of cells with reduced ΔΨm. The equipment was calibrated with the BD Cytometer Setup and Tracking Beads (BD Biosciences, San Diego, CA, USA).
SMILES,"LC3A/B positive cells ± SD (LC3A/B; MCF-7, 0.5 μM)","LC3A/B positive cells ± SD (LC3A/B; MCF-7, 1 μM)","IC50 ([1]; Homo sapiens, 24 h)","Bax positive cells ± SD (Bax; MDA-MB-231, 0.5 μM)","Bax positive cells ± SD (Bax; MDA-MB-231, 1 μM)","Decreased ΔΨm ± SD (cells) ([2]; MDA-MB-231, 0.5 μM)","Decreased ΔΨm ± SD (cells) ([2]; MDA-MB-231, 1 μM)",IC50 ([1]; 24 h incubation)
"CC(=O)C[Se]C(=O)c1cc(C(=O)[Se]CC(C)=O)cc(C(=O)[Se]CC(C)=O)c1 [EDAG-8, Se,Se,Se-tris-(2-oxopropyl) benzene-1,3,5-tris-(carboxyselenoate)]",11.9 ± 1.1%,17.4 ± 1.3%,930 ± 70 nM,34.5 ± 3.4%,60.3 ± 8.8%,55.0 ± 3.0%,92.5 ± 0.7%,
"CC(=O)C[Se]C(=O)c1ccc(C(=O)[Se]CC(C)=O)cc1 [EDAG-1, Se,Se-bis(2-oxopropyl) benzene-1,4-bis(carboselenoate)]",9.9 ± 0.9%,12.0 ± 1.4%,720 ± 70 nM,12.5 ± 2.3%,37.8 ± 5.1%,29.2 ± 2.2%,72.1 ± 0.9%,
"N.N.[Cl][Pt][Cl] [Cisplatin, reference compound]",3.3 ± 0.5%,3.5 ± 0.4%,,1.3 ± 0.3%,1.4 ± 0.1%,11.2 ± 0.9%,12.9 ± 0.2%,> 5000 nM

# Reference: article PMC11277004, “Di- and Triselenoesters—Promising Drug Candidates for the Future Therapy of Triple-Negative Breast Cancer” (International Journal of Molecular Sciences, 2024)
